Reference: US20060160095A1, “Survivin” (EiRx Therapeutics Limited, priority 2002, published 2006)
e = 2'-O-(2-methoxyethyl) (MOE); d = 2'-deoxy (DNA)

How the values were obtained:
[1] = system: Primary human neutrophils; test: MTT survival assay of neutrophils cultured with GM-CSF, with or without gliotoxin; type: cell-based; conditions: 0.1 μg/ml added with 5 U/ml GM-CSF
Protocol: Primary human neutrophils are isolated and purified from peripheral blood of normal healthy individuals. Neutrophils are resuspended in serum containing culture medium together with various amounts of GM-CSF at a density of 2×10^6/ml, with 100 μl plated into a 96 well plate and cultured for 18 h at 37° C. After this time 10 μl of MTT (5 mg/ml) is added to the cultures and incubated for a further 4 h at 37° C. before solubilisation of the purple coloured formazan with acidic isopropanol. Optical densities are read at 570 nm using a plate reader.
Primary human neutrophils are isolated and purified from peripheral blood of normal healthy individuals. Neutrophils are resuspended in serum containing culture medium containing 5 U/ml of GM-CSF at a concentration of 2×10^6/ml. […] After the indicated time, 10 μl of MTT (5 mg/ml) are added to the cultures and incubated for a further 4 h at 37° C. before solubilisation of the purple coloured formazan with acidic isopropanol. Optical densities are read at 570 nm using a plate reader.

survivin = test: Immunoblotting of survivin protein in neutrophils; type: cell-based, human
Protocol: (§1) Neutrophils are cultured at 1×10^6 per ml in complete culture medium. GM-CSF (50 ng/ml; kind gift of T. Hartung, University of Konstanz, Konstanz, Germany) or G-CSF (25 ng/ml; PeproTech, BioConcept, Allschwil, Switzerland) are added. The duration of GM-CSF or G-CSF stimulation is indicated in each experiment.
Neutrophils (5×10^6) are washed with PBS, lysed with RIPA-buffer (0.5% sodium deoxycholate, 1% Nonidet P-40, 0.1% SDS in PBS) supplemented with a protease inhibitor-cocktail (Sigma) with frequent vortexing on ice for 40 min, including two freeze/thaw cycles using a methanol/dry ice bath. After a 10-min centrifugation to remove insoluble particles, equal amounts of the cell lysates are loaded on NuPage-Gels (Invitrogen Corp., Groningen, Netherlands). Separated proteins are electrotransferred onto polyvinylidene difluoride (PVDF) membranes (Immobilion-P, Millipore, Bedford, Mass.). The filters are incubated overnight with a polyclonal anti-survivin antibody (1/1000; R&D Systems, Abingdon, UK) at 4° C. in TBS/0.1% Tween-20/3% non-fat dry milk. Purified full-length recombinant human survivin (2 μl) is provided by R&D Systems as positive control for anti-survivin immunoblotting. For loading controls, stripped filters are incubated with a monoclonal anti-β-actin antibody (1/10,000; Sigma). Filters are washed in TBS/0.1% Tween-20 for 30 min and incubated with the appropriate HRP-conjugated secondary antibody (Amersham Pharmacia Biotech, Dübendorf, Switzerland) in TBS/0.1% Tween-20/5% non-fat dry milk for 1 h. Filters are developed by an ECL-technique (ECL-Kit, Amersham Pharmacia Biotech) according to the manufacturer's instructions.
(§2) The 20-mer first generation antisense oligonucleotide 4003 targeting the survivin mRNA has been described above. The second generation 2′-O-methoxy-ethoxy (2′-MOE) gapmer version of 4003 (as) and its 3-base mismatch sequence control (ms) are synthesized using an Applied Biosystems 394B automated DNA synthesizer as described (De Mesaeker et al. (1995) Acc. Chem. Res. 28, 366-374). Sequences are as follows: antisense survivin, cscscsasgsCsCsTsTsCsCsAsGsCsTscscststsg; mismatch survivin, cscstsasgsCsCsTsTsCsCsAsGsGsTscscstsasg. Small letters refer to 2′-O-(2-methoxy)-ethyl-modified nucleotides, capital letters to DNA, and “s” refers to phosphorothioate linkages. Cells isolated and cultured as described above are treated with survivin antisense oligonucleotides (as) or survivin mismatch control oligonucleotides (ms) at the indicated concentrations. In the experiments in which GM-CSF (50 ng/ml; kind gift of T. Hartung, University of Konstanz, Konstanz, Germany) or G-CSF (25 ng/ml; PeproTech, BioConcept, Allschwil, Switzerland) are added, the oligonucleotides are given 2 h before addition of cytokines.

Neutrophils = test: Neutrophil apoptosis by oligonucleosomal DNA fragments after 2-MOE oligonucleotides; type: cell-based, human; conditions: for GM-CSF- and G-CSF-mediated survival of neutrophils: oligonucleotide plus GM-CSF or G-CSF
Protocol: Neutrophil apoptosis is assessed by oligonucleosomal DNA fragmentation (Dibbert et al.(1999) Proc. Natl. Acad. Sci. USA 96, 13330-13335; Hebestreit et al. (1998), J. Exp. Med. 187, 415-425) according to Nicoletti et al. ((1991) J. Immunol. Meth. 139, 271-279). Briefly, cells are resuspended in hypotonic fluorochrome solution containing 50 μg/ml propidium iodide (Sigma Buchs, Switzerland), 0.1% sodium citrate (Sigma) and 0.1% (vol/vol) Triton-X 100 (Sigma), incubated at 4° C. for 10 h, and analyzed by flow cytometry (FACScan, Becton Dickinson, Heidelberg, Germany).
as §2
Values are means ±S.E.M. of four independent experiments. *, p<0.05; **, p<0.01; ***, p<0.001.

caspase-3 [2] = test: Enzymatic caspase assay (Ac-DEVD-pNA) in neutrophil lysates; type: cell-based, human
Protocol: (§3) Neutrophils (2.5×10^6) are cultured in the presence or absence of GM-CSF (50 ng/ml), G-CSF (25 ng/ml), 2-MOE modified antisense or mismatch survivin oligonucleotides at the indicated concentrations for 10 h, washed with cold PBS and subsequently lysed in 50 μl cell lysis buffer (50 mM HEPES, pH 7.4/0.1% Chaps/5 mM DTT/0.1 mM EDTA) using a Teflon glass homogenizer (VWR International, Ismaning, Germany) on ice for 10 min. After a 10-min centrifugation step at 10,000×g at 4° C., an aliquot of the supernatant is saved for caspase-3 immunoblotting and caspase 3-like activity is measured in 10 μl supernatants as enzymatic-conversion of the colorimetric substrate Ac-DEVD-pNA at 405 nm according to the manufacturer's instructions (QuantiZyme caspase 3 cellular activity assay kit, Biomol, Plymouth Meeting, Pa., USA).

caspase-3 [3] = test: Caspase-3 immunoblotting in neutrophils; type: cell-based, human
Protocol: Immunoblotting is carried out as described above using supernatants of cell lysates. Caspase-3 is detected using a polyclonal anti-caspase-3 antibody (1/1000; Becton Dickinson Pharmingen, Heidelberg, Germany))
as §3

Survivin mRNA = test: Real-time PCR quantification of survivin mRNA in neutrophils; type: cell-based, human; conditions: for survivin mRNA expression in the absence of survival cytokines: 4-h transfection period, no cytokine
Protocol: as §1
Neutrophils (1×10^7) are washed with PBS and the RNA is isolated according to the RNeasy protocol (Qiagen AG, Basel, Switzerland), which includes DNase digestion. RNA is reverse transcribed with the first strand cDNA synthesis kit (Amersham Pharmacia Biotech) by using random hexanucleotides according to the manufacturer's instructions. Real-time monitoring of PCR amplification of survivin cDNA is performed with a 1/100 dilution of neutrophil cDNA as previously described (Olie et al. (2000) Cancer Research 60, 2805-2809). Relative quantification of survivin expression is performed as described (Olie et al. (2000) Cancer Research 60, 2805-2809) utilizing rRNA as an internal standard.
as §2

With CS[C@]1(CO)C(=O)N2[C@H]3C(=CC=C[C@@H]3O)C[C@@]2(SC)C(=O)N1C [methylgliotoxin, bis-Dethio-bis (Methylthio) Methyl Gliotoxin] the “block of the GM-CSF inhibition of neutrophil apoptosis (MTT)” value [1] was “blocking effect is not seen”.

“cscscsasgsCsCsTsTsCsCsAsGsCsTscscststsg (CCCAGCCTTCCAGCTCCTTG; sugars from the 5' end e5 d10 e5, all phosphorothioate, methylation of C not given here) [survivin-antisense, second generation 2′-O-methoxy-ethoxy (2′-MOE) gapmer version of 4003]” was tested, and the “protein expression of survivin in normal neutrophils” value (survivin; 15-h transfection period, no cytokine) was “almost not affected”, the “optimal concentration to block increase in survivin protein expression” value (survivin; G-CSF stimulation) was 5 µM and the “optimal concentration to block increase in survivin protein expression” value (survivin; GM-CSF stimulation) was 2.5 µM. For the same molecule, the “increases in survivin expression (protein) upon GM-CSF and G-CSF stimulation” value (survivin; dose-dependent) was “prevents increases in survivin expression”, the “spontaneous apoptosis of neutrophils” value (Neutrophils; 10-h transfection period, no cytokine) was “increase spontaneous apoptosis” and the “optimal concentration to block cytokine-mediated antiapoptosis” value (Neutrophils; G-CSF) was 5 µM. The “optimal concentration to block cytokine-mediated antiapoptosis” value (Neutrophils; GM-CSF) was 2.5 µM, the “GM-CSF- and G-CSF-mediated survival of neutrophils” value (Neutrophils) was “blocked GM-CSF- and G-CSF-mediated survival in a dose-dependent manner” and the “optimal concentration at which inhibitory effect on caspase-3 activity is completely blocked” value (caspase-3 [2]; G-CSF) was 5 µM. For the same molecule, the “optimal concentration at which inhibitory effect on caspase-3 activity is completely blocked” value (caspase-3 [2]; GM-CSF) was 2.5 µM, the “caspase-3-like enzymatic activity in the presence of GM-CSF or G-CSF” value (caspase-3 [2]; dose-dependent, 10 h) was “increase caspase-3-like enzymatic activity” and the “optimal concentration to block inhibitory effects on caspase-3 processing” value (caspase-3 [3]; G-CSF) was 5 µM. The “optimal concentration to block inhibitory effects on caspase-3 processing” value (caspase-3 [3]; GM-CSF) was 2.5 µM, the “caspase-3 processing in the presence of GM-CSF or G-CSF” value (caspase-3 [3]; dose-dependent, 10 h) was “increase caspase-3 processing” and the “survivin mRNA expression in the absence of survival cytokines” value (Survivin mRNA) was “only little effects”. For the same molecule, the “required concentration to significantly decrease survivin mRNA levels” value (Survivin mRNA; G-CSF stimulation) was 2.5 µM, the “concentration sufficient to significantly decrease survivin mRNA levels” value (Survivin mRNA; GM-CSF stimulation) was 1.0 µM and the “increases in survivin mRNA expression upon GM-CSF and G-CSF stimulation” value (Survivin mRNA; oligonucleotides given 2 h before cytokines, dose-dependent) was “prevents increases in survivin mRNA expression”.

“cscstsasgsCsCsTsTsCsCsAsGsGsTscscstsasg (CCTAGCCTTCCAGGTCCTAG; sugars from the 5' end e5 d10 e5, all phosphorothioate, methylation of C not given here) [mismatch control oligonucleotides, reference compound]” was tested, and the “GM-CSF- and G-CSF-mediated survival of neutrophils” value (Neutrophils) was “unspecific effect” and the “survivin mRNA expression in the absence of survival cytokines” value (Survivin mRNA) was “only little effects”.

B1: G-CSF: inflammatory cytokine, neutrophil hematopoietin (PeproTech) (protein, UniProt P09919 31-207, looked up)
Granulocyte …: TPLGPASSLPQSFLLKCLEQVRKIQGDGAALQEKLVSECATYKLCHPEELVLLGHSLGIPWAPLSSCPSQALQLAGCLSQLHSGLFLYQGLLQALEGISPELGPTLDTLQLDVADFATTIWQQMEELGMAPALQPTQGAMPAFASAFQRRAGGVLVASHLQSFLEVSYRVLRHLAQP
With B1 the “Levels of survivin (immunoblot) in normal control neutrophils” value (survivin; cultured for 12 h in the presence of cytokine) was “increased”, the “DNA-fragmentation of neutrophils with cytokine” value (Neutrophils; cytokine alone) was “prevent DNA-fragmentation” and the “caspase-3 proform and 17-kDa fragment levels with cytokine” value (caspase-3 [3]; neutrophils cultured with GM-CSF or G-CSF for 10 h) was “maintain greater amounts of the caspase-3 proform”. The “survivin mRNA in normal control neutrophils after cytokine addition” value (Survivin mRNA; cytokine added in vitro, A549 standard = 100%) was “increase in survivin mRNA”.
